Data from patent US20140134730A1, “METHOD FOR INHIBITING CELL PROLIFERATION BY OXIDATIVE STRESS” (KYOWA HAKKO KIRIN CO., LTD, priority 2012, published 2014).

Test system: SNU-16
Assay: Western blot analysis of DNA damage (H2A.X Phospho-Ser139)
Assay type: cell-based
Details: 8 hours, KM4008HV2LV3 10 μg/mL, H2O2 50 μM
Method: Anti-phospho-Histone H2A.X Ser139, clone JBW301 (Millipore Catalog No. 05-636) as a primary antibody and anti-mouse IgG, HRP-linked antibody (CST Catalog No. 7076) as a secondary antibody were used.
SNU-16 was seeded in 10 mL of the assay medium at a density of 2×10^4 cells/mL, and cultured at 37° C. under the conditions of 5% CO2 for 24 hours. Then, KM4008HV2LV3 (final concentration of 10 μg/mL), the solvent solution of antibody, or hydrogen peroxide (H2O2) (final concentration of 50 μM) was added. The cells were left at 37° C. under the conditions of 5% CO2 for 8 hours, and the suspending cells were recovered together with the culture supernatant.
The adherent cells were washed with D-PBS(−) (manufactured by Nacalai Tesque, Catalog No. 14249-95), and then 1.5 mL of TrypLE select (manufactured by Invitrogen, Catalog No. 12563-011) was added and left at 37° C. under the conditions of 5% CO2 for 5 minutes for detachment, and then mixed with the suspending cells recovered in advance to be used in the subsequent manipulations. […]
The cell lysate thus obtained was left on ice for 15 minutes, followed by centrifugation at 15,000 rpm for 15 minutes. The protein concentration in the supernatant thus obtained was determined using a BCA protein assay kit (manufactured by Pierce, Catalog No. 23225). […]

OO [H2O2, hydrogen peroxide]
Phosphorylation signals of H2A.X Ser139 (Western blot) compared to solvent-treated cells: increased
